In PubChem BioAssay (NCI):
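Grown in 96-well plates, cells were treated for 48 hours with each compound at five concentrations. Insufficient inhibition: endpoint recorded as highest concentration tested. At the TGI there is no net growth.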

Tests used:
Test in all cases: NCI-60 cell line screen, 48 h
HCT-116 colon = tested on: HCT-116 colon
IGROV1 ovarian = tested on: IGROV1 ovarian
SK-MEL-5 melanoma = tested on: SK-MEL-5 melanoma
OVCAR-8 ovarian = tested on: OVCAR-8 ovarian
UACC-62 melanoma = tested on: UACC-62 melanoma
A549 NSCLC = tested on: A549 NSCLC
786-0 renal = tested on: 786-0 renal
HOP-62 NSCLC = tested on: HOP-62 NSCLC
SK-MEL-28 melanoma = tested on: SK-MEL-28 melanoma
HT29 colon = tested on: HT29 colon
SK-MEL-2 melanoma = tested on: SK-MEL-2 melanoma
EKVX NSCLC = tested on: EKVX NSCLC
NCI-H23 lung = tested on: NCI-H23 lung
NCI-H460 lung = tested on: NCI-H460 lung
OVCAR-4 ovarian = tested on: OVCAR-4 ovarian
HCC-2998 colon = tested on: HCC-2998 colon
M14 melanoma = tested on: M14 melanoma
ACHN renal = tested on: ACHN renal
HCT-15 colon = tested on: HCT-15 colon
UACC-257 melanoma = tested on: UACC-257 melanoma
SF-539 CNS = tested on: SF-539 CNS
NCI-H522 lung = tested on: NCI-H522 lung
UO-31 renal = tested on: UO-31 renal
SN12C renal = tested on: SN12C renal
SNB-78 CNS = tested on: SNB-78 CNS
SNB-19 CNS = tested on: SNB-19 CNS
KM20L2 colon = tested on: KM20L2 colon
LOX IMVI melanoma = tested on: LOX IMVI melanoma
KM12 colon = tested on: KM12 colon
U251 CNS = tested on: U251 CNS
OVCAR-3 ovarian = tested on: OVCAR-3 ovarian
LXFL 529 NSCLC = tested on: LXFL 529 NSCLC
DMS 273 small cell lung = tested on: DMS 273 small cell lung
CAKI-1 renal = tested on: CAKI-1 renal
SF-268 CNS = tested on: SF-268 CNS
TK-10 renal = tested on: TK-10 renal
DLD-1 colon = tested on: DLD-1 colon
SF-295 CNS = tested on: SF-295 CNS
HOP-92 NSCLC = tested on: HOP-92 NSCLC
SW-620 colon = tested on: SW-620 colon
OVCAR-5 ovarian = tested on: OVCAR-5 ovarian
M19-MEL melanoma = tested on: M19-MEL melanoma
MOLT-4 leukemia = tested on: MOLT-4 leukemia
CCRF-CEM leukemia = tested on: CCRF-CEM leukemia
RPMI-8226 leukemia = tested on: RPMI-8226 leukemia
SK-OV-3 ovarian = tested on: SK-OV-3 ovarian
DMS 114 small cell lung = tested on: DMS 114 small cell lung
MALME-3M melanoma = tested on: MALME-3M melanoma
HL-60(TB) leukemia = tested on: HL-60(TB) leukemia
SNB-75 CNS = tested on: SNB-75 CNS
SR leukemia = tested on: SR leukemia
COLO 205 colon = tested on: COLO 205 colon
K-562 leukemia = tested on: K-562 leukemia
NCI-H226 lung = tested on: NCI-H226 lung
A498 renal = tested on: A498 renal

Measured: TGI

Cc1ccc(C(=O)NC(C)(C)C)cc1N=NN(C)C
not listed: OVCAR-5 ovarian | M19-MEL melanoma | MOLT-4 leukemia | CCRF-CEM leukemia | RPMI-8226 leukemia | SK-OV-3 ovarian | DMS 114 small cell lung | MALME-3M melanoma | HL-60(TB) leukemia | SNB-75 CNS | SR leukemia | COLO 205 colon | K-562 leukemia | NCI-H226 lung | A498 renal
> 100 µM: all other assays above

O=c1[nH]c(/C=C(\O)c2ccncc2)nc2ccccc12
not listed: SF-539 CNS | KM20L2 colon | LOX IMVI melanoma | KM12 colon | LXFL 529 NSCLC | DMS 273 small cell lung | HOP-92 NSCLC
> 100 µM: all other assays above
